Measurements from US20170340690A1, “METHOD FOR IMPROVING INTESTINAL HEALTH USING EXTRACTS OF CODONOPSIS LANCEOLATA” (KOREA INSTITUTE OF SCIENCE AND TECHNOLOGY, priority 2016, published 2017).

How the values were obtained:
[1] = test system: intestinal microorganisms; assay: Gas chromatographic analysis of content of short-chain fatty acids in culture medium of intestinal microorganisms; type: cell-based, human; conditions: 48 hours, extract 100 μg/mL, FOS 1 mg/mL, chloramphenicol 10 or 40 μg/mL; for Content (mM) of short-chain fatty acids: non-treated control 18.6 mM
Method: The analysis sample was subjected to centrifugation of the 96-well plate at 3500 rpm for 10 minutes. 400 μL of the obtained supernatant was stabilized by adding 20 μL of 50% sulfuric acid and then 40 μL of an internal standard (1% 2-methylpentanoic acid) was added. Then, after adding 400 μL of ethyl ether, the mixture was mixed for about 2 minutes by vortexing. The sample was centrifuged and the top ethyl ether layer was recovered and subjected to GC analysis. The analysis was performed using Bruker 450-GC and the Supelco's Nukol Fused silica capillary column ([…]×0.25 mm×0.25 μm). The analysis condition is described in Table 4.

[2] = test system: intestinal microorganisms; assay: Measurement of growth of intestinal microorganisms (absorbance at 600 nm); type: cell-based, human; conditions: normal medium condition (FIG. 1), 37° C., 48 hours, extract 100 μg/mL, FOS 1 mg/mL, chloramphenicol 10 or 40 μg/mL
tryptophanase = conditions: enzymatic activity divided by OD600; 37° C., 48 hours anaerobic culture; extract 100 μg/mL, FOS 1 mg/mL, chloramphenicol 10 or 40 μg/mL (FIG. 4)
Method: In order to quickly evaluate the effect of the candidate materials on improvement of intestinal microflora, culturing was performed using a 96-well plate. 10 μL of the culture medium of intestinal microorganisms maintained stably through anaerobic continuous culturing was inoculated to 1 mL of a medium for investigation described in Table 3. Culturing was performed at 37° C. for 48 hours by treating an extract of Codonopsis lanceolata for evaluating the effect of improving intestinal microflora at a concentration of 100 μg/mL (0.2% DMSO). […] At the same time, chloramphenicol (10 or 40 μg/mL) which is an antibiotic known to worsen intestinal microflora was used to compare the effect of improving intestinal microflora. Then, the effect of improving intestinal microflora was investigated by measuring the growth of intestinal microorganisms, the enzymatic activity of harmful bacteria, the content of short-chain fatty acids, etc. using the culture medium of microorganisms.
The culture medium of intestinal microorganisms incubated and maintained with a culture medium in a fermenter under an anaerobic condition. […] The supernatant was taken and absorbance was measured at 550 nm. Then, relative tryptophanase activity (%) was calculated by dividing the enzymatic activity by the degree of growth of intestinal microorganisms (OD600).

β-glucuronidase = conditions: enzymatic activity divided by OD600; 37° C., 48 hours anaerobic culture; extract 100 μg/mL, FOS 1 mg/mL, chloramphenicol 10 or 40 μg/mL (FIG. 3)
Method: The samples were transfered to an anaerobic workstation within 30 minutes and treated quickly. After adding glycerol as an additive for storage at low temperature, the mixtures were stored in an ultra-low temperature freezer with 40 mL each and were used as samples for culturing of intestinal microorganisms.
Each bioreactor containing 300 mL of a medium was sterilized and maintained at an anaerobic condition by injecting nitrogen gas. Then, the sample of intestinal microorganisms prepared in Test Example 1 was inoculated. After conducting batch culturing for 24 hours, continuous culturing was performed using a medium of the same composition. Total residence time was 24 hours. Culturing temperature was maintained at 37° C. and pH was maintained at 5.5 using a 1 N hydrochloric acid solution and a 1 N sodium hydroxide solution. […] The culturing condition was maintained for at least 30 days. […]
The culture medium of intestinal microorganisms incubated and maintained with a culture medium in a fermenter under an anaerobic condition. […] The supernatant was taken and absorbance was measured at 405 nm. Then, relative β-glucuronidase activity (%) was calculated by dividing the enzymatic activity by the degree of growth of intestinal microorganisms (OD600).

O=C(N[C@H](CO)[C@H](O)c1ccc([N+](=O)[O-])cc1)C(Cl)Cl [chloramphenicol]
Composition of short-chain fatty acids (%) Acetate [1]: 54.36 ± 3.23%
Composition of short-chain fatty acids (%) Butyrate [1]: 20.24 ± 0.64%
Composition of short-chain fatty acids (%) Propionate [1]: 25.40 ± 0.89%
Content (mM) of short-chain fatty acids [1]: 2.03 mM
Content (mM) of short-chain fatty acids ([1]; listed as Antibiotic (chloramphenicol)): 2.03 ± 0.06 mM
growth of intestinal microorganisms [2]: decreased growth of intestinal microorganisms
relative tryptophanase activity (tryptophanase): increased tryptophanase activity
relative β-glucuronidase activity (β-glucuronidase): increased β-glucuronidase activity
